Measurements as given in patent US11059780B2, “Substituted pyrrolidine compound and use thereof” (Takeda Pharmaceutical Company Limited, priority 2017, dated 2021).

Molecular target: T1, human orexin type 2 receptor (hOX2R) (Homo sapiens, UniProt O43614)
T1 construct: expressed in transfected cells
T1 sequence (O43614 1-444): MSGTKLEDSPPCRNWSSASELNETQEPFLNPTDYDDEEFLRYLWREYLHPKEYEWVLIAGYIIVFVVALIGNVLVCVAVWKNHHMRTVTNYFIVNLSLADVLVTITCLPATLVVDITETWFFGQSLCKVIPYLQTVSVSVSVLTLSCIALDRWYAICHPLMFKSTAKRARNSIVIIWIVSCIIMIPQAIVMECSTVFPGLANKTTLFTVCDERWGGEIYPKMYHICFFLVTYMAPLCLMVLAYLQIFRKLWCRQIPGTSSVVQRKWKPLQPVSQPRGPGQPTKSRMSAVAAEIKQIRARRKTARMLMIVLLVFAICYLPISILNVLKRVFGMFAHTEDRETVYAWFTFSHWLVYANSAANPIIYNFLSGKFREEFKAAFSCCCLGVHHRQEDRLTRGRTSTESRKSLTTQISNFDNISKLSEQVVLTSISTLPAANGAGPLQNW
Assay: Measurement of orexin type 2 receptor agonist activity (Fluo-4 calcium fluorescence, CHO cells forcibly expressing human OX2 receptor)
Type: cell-based
Conditions: test compound 3 μM, DMSO = 0%, orexin A (human) 10 nM = 100%
From the text: Experimental Example 1: Obtainment of Cell Stably Expressing Human Orexin Type 2 Receptor (hOX2R)
To obtain a cell clone stably expressing human orexin type 2 receptor, human orexin type 2 receptor cDNA was inserted into pcDNA3.1(+) plasmid vector (Invitrogen), and a plasmid DNA for expression of human orexin type 2 receptor (pcDNA3.1(+)/hOX2R) was cloned. The plasmid DNA was introduced into CHO-dhfr cell by an electroporation method, and human orexin type 2 receptor expressing clone cells were obtained by limiting dilution method by using G418 drug resistance as a selection marker.
Experimental Example 2: Measurement of Orexin Type 2 Receptor Agonist Activity
CHO cells forcibly expressing human OX2 receptor were seeded in each well of 384 well black transparent bottom plate (BD Falcon) at 7,500 cells/well, and cultured for one day in a 5% CO2 incubator at 37° C. After removal of the medium in the cell plate, assay buffer A containing a calcium indicator (HBSS (Life Technologies), 20 mM HEPES (Life Technologies), 0.1% BSA (Wako Pure Chemical Industries, Ltd.), 2.5 μg/mL Fluo-4 AM (DOJINDO Chemical), 0.08% Pluronic F127 (DOJINDO Chemical), 1.25 mM probenecid (DOJINDO Chemical)) was added at 30 μL/well. The plate was stood for 30 min in a 5% CO2 incubator at 37° C., and further stood at room temperature for 30 min. A test compound prepared by diluting with assay buffer B (HBSS, 20 mM HEPES, 0.1% BSA) was added at 10 μL/well, and the fluorescence value was measured by FDSSpCELL (Hamamatsu Photonics K.K.) every one sec for 1 min, and thereafter every two sec for 1 min 40 sec. The activity (%) of the test compound was calculated assuming that variation in the fluorescence value when DMSO was added instead of the test compound was 0% […], and variation in the fluorescence value when orexin A (human) (PEPTIDE INSTITUTE, INC.) was added at the final concentration of 10 nM was 100% […]. The activity of each compound at the concentration of 3 μM was shown below.

| OX2R agonist activity (3 μM, %) [%] | Structure (SMILES) |
| --- | --- |
| 73 | CO[C@@H]1CN(C(=O)c2cc(C)ccc2C)C[C@H]1Oc1cccc(NS(=O)(=O)N(C)C2CC2)c1 (relative stereo) [Example 44, trans-N-cyclopropyl-N′-(3-((1-(2,5-dimethylbenzoyl)-4-methoxypyrrolidin-3-yl)oxy)phenyl)-N-methylsulfuric diamide] |
| 82 | CO[C@@H]1CN(C(=O)c2cc(C)ccc2C)C[C@H]1Oc1cccc(NS(=O)(=O)N(C)C2COC2)c1 (relative stereo) [Example 45, trans-N′-(3-((1-(2,5-dimethylbenzoyl)-4-methoxypyrrolidin-3-yl)oxy)phenyl)-N-methyl-N-oxetan-3-ylsulfuric diamide] |
| 94 | CO[C@@H]1CN(C(=O)c2cc(C)ccc2C)C[C@H]1Oc1cccc(NS(=O)(=O)N(C)C2CCOC2)c1 (relative stereo) [Example 46, trans-N′-(3-((1-(2,5-dimethylbenzoyl)-4-methoxypyrrolidin-3-yl)oxy)phenyl)-N-methyl-N-(tetrahydrofuran-3-yl)sulfuric diamide] |
| 106 | CO[C@@H]1CN(C(=O)c2cc(C)ccc2C)C[C@H]1Oc1cccc(NS(=O)(=O)N(C)C2CCOCC2)c1 (relative stereo) [Example 47, trans-N′-(3-((1-(2,5-dimethylbenzoyl)-4-methoxypyrrolidin-3-yl)oxy)phenyl)-N-methyl-N-(tetrahydro-2H-pyran-4-yl)sulfuric diamide] |
| 62 | CO[C@@H]1CN(C(=O)c2cc(C)ccc2C)C[C@H]1Oc1cccc(NS(=O)(=O)N2CCC2)c1 (relative stereo) [Example 48, trans-N-(3-((1-(2,5-dimethylbenzoyl)-4-methoxypyrrolidin-3-yl)oxy)phenyl)azetidine-1-sulfonamide] |
| 87 | COCC1CCCN1S(=O)(=O)Nc1cccc(O[C@@H]2CN(C(=O)c3cc(C)ccc3C)C[C@H]2OC)c1 (relative stereo) [Example 50, trans-N-(3-((1-(2,5-dimethylbenzoyl)-4-methoxypyrrolidin-3-yl)oxy)phenyl)-2-(methoxymethyl)pyrrolidine-1-sulfonamide] |
| 83 | CO[C@@H]1CN(C(=O)c2cc(C)ccc2C)C[C@H]1Oc1cccc(NS(=O)(=O)N2CCCC2c2ccncc2)c1 (relative stereo) [Example 52, trans-N-(3-((1-(2,5-dimethylbenzoyl)-4-methoxypyrrolidin-3-yl)oxy)phenyl)-2-(pyridin-4-yl)pyrrolidine-1-sulfonamide] |
| 99 | CO[C@@H]1CN(C(=O)c2cc(C)ccc2C)C[C@H]1Oc1cccc(NS(=O)(=O)N2CCC(c3cccnc3)C2)c1 (relative stereo) [Example 53, trans-N-(3-((1-(2,5-dimethylbenzoyl)-4-methoxypyrrolidin-3-yl)oxy)phenyl)-3-(pyridin-3-yl)pyrrolidine-1-sulfonamide] |
| 85 | CO[C@@H]1CN(C(=O)c2cc(C)ccc2C)C[C@H]1Oc1cccc(NS(=O)(=O)N2CCOC(C)C2)c1 (relative stereo) [Example 54, trans-N-(3-((1-(2,5-dimethylbenzoyl)-4-methoxypyrrolidin-3-yl)oxy)phenyl)-2-methylmorpholine-4-sulfonamide] |
| 87 | CO[C@@H]1CN(C(=O)c2cc(C)ccc2C)C[C@H]1Oc1cccc(NS(=O)(=O)N(C)Cc2cccnc2)c1 (relative stereo) [Example 61, trans-N′-(3-((1-(2,5-dimethylbenzoyl)-4-methoxypyrrolidin-3-yl)oxy)phenyl)-N-methyl-N-(pyridin-3-ylmethyl)sulfuric diamide] |
| 74 | CO[C@@H]1CN(C(=O)c2cc(C)ccc2C)C[C@H]1Oc1cccc(NS(=O)(=O)N(C)CC2CCOC2)c1 (relative stereo) [Example 62, trans-N′-(3-((1-(2,5-dimethylbenzoyl)-4-methoxypyrrolidin-3-yl)oxy)phenyl)-N-methyl-N-(tetrahydrofuran-3-ylmethyl)sulfuric diamide] |
| 77 | CO[C@@H]1CN(C(=O)c2cc(C)ccc2C)C[C@H]1Oc1cccc(NS(=O)(=O)N2CCC23COC3)c1 (relative stereo) [Example 63, trans-N-(3-((1-(2,5-dimethylbenzoyl)-4-methoxypyrrolidin-3-yl)oxy)phenyl)-6-oxa-1-azaspiro[3.3]heptane-1-sulfonamide] |
| 75 | COC1CN(C(=O)c2cc(C)ccc2C)CC1Oc1cccc(NS(=O)(=O)N2C[C@H]3C[C@H]2C3)c1 (relative stereo) [Example 64, trans-N-(3-((1-(2,5-dimethylbenzoyl)-4-methoxypyrrolidin-3-yl)oxy)phenyl)-2-azabicyclo[2.1.1]hexane-2-sulfonamide] |
| 72 | COc1ccccc1C1CCCN1S(=O)(=O)Nc1cccc(O[C@@H]2CN(C(=O)c3cc(C)ccc3C)C[C@H]2OC)c1 (relative stereo) [Example 66, trans-N-(3-((1-(2,5-dimethylbenzoyl)-4-methoxypyrrolidin-3-yl)oxy)phenyl)-2-(2-methoxyphenyl)pyrrolidine-1-sulfonamide] |
| 82 | CO[C@@H]1CN(C(=O)c2cc(C)ccc2C)C[C@H]1Oc1cccc(NS(=O)(=O)N2CCCC2Cc2cccnc2)c1 (relative stereo) [Example 67, trans-N-(3-((1-(2,5-dimethylbenzoyl)-4-methoxypyrrolidin-3-yl)oxy)phenyl)-2-(pyridin-3-ylmethyl)pyrrolidine-1-sulfonamide] |
| 84 | CO[C@@H]1CN(C(=O)c2cc(C)ccc2C)C[C@H]1Oc1cccc(NS(=O)(=O)N2CCC(C)C2)c1 (relative stereo) [Example 68, trans-N-(3-((1-(2,5-dimethylbenzoyl)-4-methoxypyrrolidin-3-yl)oxy)phenyl)-3-methylpyrrolidine-1-sulfonamide] |
| 82 | CO[C@@H]1CN(C(=O)c2cc(C)ccc2C)C[C@H]1Oc1cccc(NS(=O)(=O)N2CCC3(CC3)C2)c1 (relative stereo) [Example 69, trans-N-(3-((1-(2,5-dimethylbenzoyl)-4-methoxypyrrolidin-3-yl)oxy)phenyl)-5-azaspiro[2.4]heptane-5-sulfonamide] |
| 90 | CO[C@@H]1CN(C(=O)c2cc(C)ccc2C)C[C@H]1Oc1cccc(NS(=O)(=O)N2CCC3(COC3)C2)c1 (relative stereo) [Example 70, trans-N-(3-((1-(2,5-dimethylbenzoyl)-4-methoxypyrrolidin-3-yl)oxy)phenyl)-2-oxa-6-azaspiro[3.4]octane-6-sulfonamide] |
| 74 | COC1CN(C(=O)c2cc(C)ccc2C)CC1Oc1cccc(NS(=O)(=O)N2CC[C@@H]3C[C@H]32)c1 (relative stereo) [Example 72, trans-N-(3-((1-(2,5-dimethylbenzoyl)-4-methoxypyrrolidin-3-yl)oxy)phenyl)-2-azabicyclo[3.1.0]hexane-2-sulfonamide] |
| 91 | COC1CN(C(=O)c2cc(C)ccc2C)CC1Oc1cccc(NS(=O)(=O)N2C[C@@H]3C[C@H]3C2)c1 (relative stereo) [Example 73, trans-N-(3-((1-(2,5-dimethylbenzoyl)-4-methoxypyrrolidin-3-yl)oxy)phenyl)-3-azabicyclo[3.1.0]hexane-3-sulfonamide] |
